Where two headings read alike, the source gives them in different places.
Tests used:
[1] = target: T1, Cyclin Dependent Kinase 2/Cyclin E1 (CDK2-cycE1) (Homo sapiens, UniProt P24941); assay: CDK2-cycE1 TR-FRET (LANCE) enzyme assay; type: biochemical; details: for Ki: enzymatic assay, read-out: CDK2 Ki; for FS CDK1/CDK2 / FS CDK4/CDK2: fold selectivity; for increased fold-selectivity CDK4/CDK2 over Comparator C: (+) sign after FS CDK4/CDK2;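 for improvement in potency against CDK2 (Ki) over Comparator C: fold lower CDK2 Ki than comparator c (Ki 0.032 µM)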
T1 construct: purchased ProQinase 0050-0055-1
Method in brief: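 Compound dose responses pre-incubated 30 min with CDK2-cycE1 in 50 mM HEPES pH 7.5, 10 mM MgCl2, 2 mM TCEP, 0.05% BGG, 0.01% Brij 35. Reaction quenched with EDTA (15 mM final), phospho-MBP detected by Eu-anti-phospho-MBP TR-FRET (acceptor/donor ratio). Inhibition constants from Morrison equation.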

[2] = test system: OVISE (JCRB1043, CCNE1-amplified); assay: OVISE EdU incorporation cell proliferation assay (CDK2-dependent); type: cell-based; details: for IC50: cellular assay, read-out: CDK2 OVISE IC50; for FS SKOV-3/OVISE: fold selectivity; for improvement in CDK2 OVISE cell potency over Comparator C: Comparator C 5.5 μM
Method in brief: (§1)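 Cells in RPMI/10% FBS dosed with compound (0.5% DMSO final) for 16 h at 37 °C, 5% CO2, then EdU 0.5 μM final for 8 h before fixation and imaging. IC50 from 4-parameter logistic fit of EdU-positive cell fraction versus dose.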

[3] = target: T2, Cyclin Dependent Kinase 1/Cyclin A2 (CDK1-cycA2) (Homo sapiens, UniProt P06493); assay: CDK1-cycA2 TR-FRET (Lance) enzyme assay; type: biochemical; details: for Ki: Table O, enzymatic assay; for FS CDK1/CDK2: fold selectivity, enzymatic Ki ratio
T2 construct: purchased ProQinase 0134-0054-1
Method in brief: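 Human CDK1/cyclin A2 pre-incubated 30 min with compound dose responses in 50 mM HEPES pH 7.5, 10 mM MgCl2, 2 mM TCEP, 0.05% BGG, 0.01% Brij 35. Reaction quenched with EDTA (15 mM final); TR-FRET readout using Eu-anti-phospho-4E-BP1, acceptor/donor ratio. Inhibition constants from Morrison equation.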

SKOV-3 (ATCC HTB-77) = assay: SKOV-3 EdU incorporation cell proliferation assay (CDK4/6-dependent); type: cell-based; details: for IC50: Homo sapiens, cellular assay, read-out: CDK4/6 SKOV-3 IC50; for FS SKOV-3/OVISE: fold selectivity, cellular IC50 ratio
Method in brief: as §1

[4] = target: T3, Cyclin Dependent Kinase 4/Cyclin D3 (CDK4-cycD3) (Homo sapiens, UniProt P11802); assay: CDK4-cycD3 TR-FRET (LANCE) enzyme assay; type: biochemical; details: for Ki: Table O, enzymatic assay; for FS CDK4/CDK2: fold selectivity, enzymatic Ki ratio
T3 construct: purchased Carna Biosciences 04-105
Method in brief: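 Compound dose responses pre-incubated 30 min with enzyme mix in 50 mM HEPES pH 7.5, 10 mM MgCl2, 2 mM TCEP, 0.05% BGG, 0.01% Brij 35. Reaction quenched with EDTA (15 mM final); Eu-anti-phospho-4E-BP1 TR-FRET detection, acceptor/donor ratio. Ki derived by Morrison equation.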

[5] = Table O, enzymatic CDK1 Ki over CDK2 Ki
[6] = Table O, enzymatic CDK4 Ki over CDK2 Ki
[7] = Table O, cellular SKOV-3 IC50 over OVISE IC50
[8] = Table Q, in brackets after OVISE IC50

T2 sequence (P06493 whole entry): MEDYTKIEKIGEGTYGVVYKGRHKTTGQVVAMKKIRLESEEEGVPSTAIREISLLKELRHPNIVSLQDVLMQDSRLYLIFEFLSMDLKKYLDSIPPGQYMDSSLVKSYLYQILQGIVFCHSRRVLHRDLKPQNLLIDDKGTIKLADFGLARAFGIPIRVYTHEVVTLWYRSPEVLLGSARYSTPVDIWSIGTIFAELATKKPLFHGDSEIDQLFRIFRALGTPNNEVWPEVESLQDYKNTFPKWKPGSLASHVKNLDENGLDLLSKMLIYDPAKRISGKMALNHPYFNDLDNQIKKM
T2 sequence (P20248 whole entry partner): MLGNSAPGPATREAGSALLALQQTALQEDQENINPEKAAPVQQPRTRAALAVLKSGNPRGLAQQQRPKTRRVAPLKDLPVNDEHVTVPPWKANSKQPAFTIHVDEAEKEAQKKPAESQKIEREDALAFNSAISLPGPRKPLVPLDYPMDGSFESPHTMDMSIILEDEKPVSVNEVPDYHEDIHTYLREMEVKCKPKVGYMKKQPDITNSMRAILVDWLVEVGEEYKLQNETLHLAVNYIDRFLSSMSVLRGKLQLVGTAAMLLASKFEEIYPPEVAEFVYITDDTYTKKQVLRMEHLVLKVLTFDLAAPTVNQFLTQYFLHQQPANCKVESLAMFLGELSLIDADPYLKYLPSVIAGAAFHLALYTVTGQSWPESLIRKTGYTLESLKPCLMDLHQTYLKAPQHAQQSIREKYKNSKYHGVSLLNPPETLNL
T3 sequence (P11802 whole entry): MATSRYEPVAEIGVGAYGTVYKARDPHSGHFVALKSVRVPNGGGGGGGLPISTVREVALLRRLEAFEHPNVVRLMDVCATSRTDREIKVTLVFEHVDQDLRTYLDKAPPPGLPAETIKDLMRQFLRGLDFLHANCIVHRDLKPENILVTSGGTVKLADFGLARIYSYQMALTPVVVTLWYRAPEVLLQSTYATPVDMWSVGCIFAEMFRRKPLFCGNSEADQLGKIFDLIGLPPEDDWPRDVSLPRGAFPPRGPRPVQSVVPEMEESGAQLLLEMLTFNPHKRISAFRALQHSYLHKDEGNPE
T3 sequence (P30281 whole entry partner): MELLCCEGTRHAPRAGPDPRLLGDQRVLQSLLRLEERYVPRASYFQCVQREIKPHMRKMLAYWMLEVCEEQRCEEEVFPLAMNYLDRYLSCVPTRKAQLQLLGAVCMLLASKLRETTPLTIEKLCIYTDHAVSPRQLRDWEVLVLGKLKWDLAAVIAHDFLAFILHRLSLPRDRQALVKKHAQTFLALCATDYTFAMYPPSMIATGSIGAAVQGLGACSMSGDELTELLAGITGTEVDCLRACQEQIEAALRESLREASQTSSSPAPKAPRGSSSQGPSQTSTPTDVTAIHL

| Structure (SMILES) | Ki ([1]; Table O) | FS CDK1/CDK2 [1, 5] | FS CDK4/CDK2 [1, 6] | IC50 ([2]; Table O) | FS SKOV-3/OVISE [2, 7] | Ki [3] | IC50 (SKOV-3 (ATCC HTB-77); SK-OV-3, Table O) | Ki [4] | also measured |
| --- | --- | --- | --- | --- | --- | --- | --- | --- | --- |
| COc1ncc(Nc2cc([C@H]3CC[C@@H](OC(=O)NC(C)C)C3)[nH]n2)c(C)n1 [Example 2X, (1R,3S)-3-(3-((2-methoxy-4-methylpyrimidin-5-yl)amino)-1H-pyrazol-5-yl)cyclopenty1 isopropylcarbamate] | 59 nM | 20 | 64 | 2800 nM | >7.1 | 1200 nM | > 20000 nM | 3800 nM | improvement in potency against CDK2 (Ki) over Comparator C [1]: 0.5 fold; increased fold-selectivity CDK4/CDK2 over Comparator C ([1]; Table Q): (+) (The (+) sign in Table Q signifies desirable increased fold-selectivity of the exemplary compounds over Comparator C); Ki ([1]; Table Q): 59 nM; FS CDK1/CDK2 ([1]; Table Q, enzymatic): 20; FS CDK4/CDK2 ([1]; Table Q, enzymatic): 64; increased fold-selectivity SKOV-3/OVISE over Comparator C ([2]; Table Q, (+) sign after FS SKOV-3/OVISE): (+) (The (+) sign in Table Q signifies desirable increased fold-selectivity of the exemplary compounds over Comparator C); FS SKOV-3/OVISE ([2]; Table Q, cellular): > 7.1; improvement in CDK2 OVISE cell potency over Comparator C [2, 8]: 2 fold; IC50 (SKOV-3 (ATCC HTB-77); SK-OV-3, Table Q): > 20000 nM |
| COc1nc(C)ncc1Nc1cc([C@H]2CC[C@@H](OC(=O)NC(C)C)C2)[nH]n1 [Example 2Y, (1R,3S)-3-(3-((4-methoxy-2-methylpyrimidin-5-yl)amino)-1H-pyrazol-5-yl)cyclopentyl isopropylcarbamate] | 210 nM | 36 | 230 | 16000 nM | >1.3 | 7500 nM | > 20000 nM | 49000 nM | improvement in potency against CDK2 (Ki) over Comparator C [1]: 0.15 fold; increased fold-selectivity CDK4/CDK2 over Comparator C ([1]; Table Q): (+) (The (+) sign in Table Q signifies desirable increased fold-selectivity of the exemplary compounds over Comparator C); Ki ([1]; Table Q): 210 nM; FS CDK1/CDK2 ([1]; Table Q, enzymatic): 36; FS CDK4/CDK2 ([1]; Table Q, enzymatic): 230; FS SKOV-3/OVISE ([2]; Table Q, cellular): >1.3; improvement in CDK2 OVISE cell potency over Comparator C [2, 8]: 0.18 fold; IC50 (SKOV-3 (ATCC HTB-77); SK-OV-3, Table Q): > 20000 nM |
| O=C(NC1CCOCC1)O[C@@H]1CC[C@H](c2cc(Nc3cccnn3)n[nH]2)C1 [Example 3D, (1R,3S)-3-(3-(pyridazin-3-ylamino)-1H-pyrazol-5-yl)cyclopentyl (tetrahydro-2H-pyran-4-yl)carbamate] | 61 nM | 23 | 38 | 7900 nM | >2.5 | 1400 nM | > 20000 nM | 2300 nM |  |
| CC1(NC(=O)O[C@@H]2CC[C@H](c3cc(Nc4cccnn4)n[nH]3)C2)COC1 [Example 3G, (1R,3S)-3-(3-(pyridazin-3-ylamino)-1H-pyrazol-5-yl)cyclopentyl (3-methyloxetan-3-yl)carbamate] | 8.3 nM | 29 | 88 | 750 nM | >27 | 240 nM | > 20000 nM | 730 nM |  |
| Cc1cc(=O)n(C)nc1Nc1cc([C@H]2CC[C@@H](OC(=O)NC(C)(C)C)C2)[nH]n1 [Example 4C, (1R,3S)-3-(3-((1,4-dimethyl-6-oxo-1,6-dihydropyridazin-3-yl)amino)-1H-pyrazol-5-yl)cyclopentyl tert-butylcarbamate] | 2.1 nM | 31 | 280 | 600 nM | 32 | 65 nM | 19000 nM | 580 nM | Ki ([1]; Table R): 2.1 nM; CDK2 Ki fold change in potency versus Comparator D ([1]; Table R, in brackets after CDK2 Ki): 1.3 fold; Ki ([1]; Table S): 2.1 nM; CDK2 Ki fold change in potency versus Comparator E ([1]; Table S, in brackets after CDK2 Ki): 0.3 fold; CDK2 OVISE IC50 fold change in potency versus Comparator D ([2]; Table R, in brackets after OVISE IC50): 6 fold; CDK2 OVISE IC50 fold change in potency versus Comparator E ([2]; Table S, in brackets after OVISE IC50): 0.3 fold; FS CDK1/CDK2 increased over Comparator D, (+) sign ([3]; Table R): (+); FS CDK1/CDK2 ([3]; Table R): 31; FS CDK1/CDK2 ([3]; Table S): 31; selectivity for CDK2 over CDK4 compared with Comparator E (SKOV-3 (ATCC HTB-77); SKOV-3/OVISE fold-selectivity cellular assay data): increase in selectivity for CDK2 over CDK4; FS SKOV-3/OVISE increased over Comparator D, (+) sign (SKOV-3 (ATCC HTB-77); Table R): (+); FS SKOV-3/OVISE (SKOV-3 (ATCC HTB-77); Table R): 32; FS SKOV-3/OVISE increased over Comparator E, (+) sign (SKOV-3 (ATCC HTB-77); Table S): (+); FS SKOV-3/OVISE (SKOV-3 (ATCC HTB-77); Table S): 32; FS CDK4/CDK2 increased over Comparator D, (+) sign ([4]; Table R): (+); FS CDK4/CDK2 ([4]; Table R): 280; FS CDK4/CDK2 increased over Comparator E, (+) sign ([4]; Table S): (+); FS CDK4/CDK2 ([4]; Table S): 280 |
| O=C(NC1(C(F)(F)F)CC1)O[C@@H]1CC[C@H](c2cc(Nc3cccnn3)n[nH]2)C1 [Example 5, (1R,3S)-3-(3-(pyridazin-3-ylamino)-1H-pyrazol-5-yl)cyclopentyl (1-(trifluoromethyl)cyclopropyl)carbamate] | 11 nM | 25 | 25 | 460 nM | 13 | 270 nM | 5800 nM | 280 nM |  |
| CNC(=O)c1ccc(Nc2cc([C@H]3CC[C@@H](OC(=O)NC4(C)CC4)C3)[nH]n2)c(C)n1 [Example 7A, (1R,3S)-3-(3-((2-methyl-6-(methylcarbamoyl)pyridin-3-yl)amino)-1H-pyrazol-5-yl)cyclopentyl (1-methylcyclopropyl)carbamate] | 14 nM | 39 | 42 | 1400 nM | >14 | 550 nM | > 20000 nM | 590 nM |  |
| Cc1ncccc1Nc1cc([C@H]2CC[C@@H](OC(=O)N[C@@H]3CCN(C)C3)C2)[nH]n1 [Example 7B, (1R,3S)-3-(3-((2-methylpyridin-3-yl)amino)-1H-pyrazol-5-yl)cyclopentyl ((R)-1-methylpyrrolidin-3-yl)carbamate] | 300 nM | 11 | 22 | 17000 nM | >1.2 | 3300 nM | > 20000 nM | 6500 nM |  |

— patent publication US20240425478A1, “CYCLOPENTYLPYRAZOLE CDK2 INHIBITORS” (Genentech, Inc., priority 2021, published 2024)
